These results are taken from ChEMBL document CHEMBL1201862, “PubChem BioAssay data set” (2004).

Among the test systems are 786-0; A498; COLO 205; HCC 2998; HCT-116; HCT-15; K562; KM12; LOX IMVI; MCF7; Malme-3M; OVCAR-3; RPMI-8226; SF-295; SK-MEL-5; SK-OV-3; SNB-75; TK-10; U-251; HOP-92.
Test in all cases: NCI tumour cell line growth inhibition, 48 h

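Following 48 hours of exposure in 96-well plates, responses at five concentrations were used to interpolate endpoints linearly. GI50 is the concentration that inhibits growth by half.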 Calls of active or inactive are those of the source. Cut-off read from the data, not from the text of the source: active = GI50 up to about 1.1 µM and inactive = higher.

Turning to `COc1ccc2c3c1OC1C(OC)(OC)CC4(C=C2)CN(C)CCC314` (stereo unspecified), the GI50 in the test with 786-0 was > 100 µM (inactive); in the test on A498, 28.6 µM (inactive); with COLO 205 it was > 100 µM (inactive); with HCC 2998, > 100 µM (inactive); with HCT-116 it was > 100 µM (inactive); in the test on HCT-15, over 100 µM. Also, the GI50 with K562 was 41.9 µM (inactive); in the test with KM12, > 100 µM (inactive); in the test with LOX IMVI, > 100 µM (inactive); with MCF7 it was > 100 µM (inactive); in the test on Malme-3M it was > 100 µM (inactive); in the test with OVCAR-3, > 100 µM (inactive). Also, the GI50 in the test on RPMI-8226, in the test on SF-295, in the test with SK-MEL-5, in the test on SK-OV-3, in the test with SNB-75 and with TK-10 was > 100 µM (inactive) each time. Besides, in the test on U-251, the GI50 is > 100 µM (inactive).

Turning to `COC1=CC2=NCCc3n[nH]c(c32)C1=O`, the GI50 was 18.5 µM (inactive) in the test on 786-0; 23.5 µM (inactive) with A498; 17.7 µM (inactive) in the test with COLO 205; 47.1 µM (inactive) in the test with HCC 2998; 13.7 µM (inactive) in the test with HCT-116; 46.3 µM in the test on HCT-15. In addition, the GI50 with K562 was 0.0545 µM (active); in the test with KM12, 28.1 µM (inactive); with LOX IMVI it was 2.35 µM (inactive); with MCF7, 4.86 µM (inactive); in the test with Malme-3M it was 16.3 µM (inactive); with OVCAR-3, 15.9 µM (inactive). Further, the GI50 in the test on RPMI-8226 was 11.5 µM (inactive); with SF-295, 28.1 µM (inactive); in the test with SK-MEL-5 it was 18.3 µM (inactive); in the test on TK-10 it was 22.1 µM (inactive); in the test on U-251, 16.7 µM (inactive).

Regarding `Nc1nncc2[nH]nnc12`, the GI50 was > 100 µM (inactive) in the test on 786-0; > 100 µM (inactive) in the test with A498; > 100 µM (inactive) in the test on COLO 205; > 100 µM (inactive) in the test with HCT-116; over 100 µM in the test on HCT-15; 0.186 µM (active) in the test on K562. Moreover, the GI50 is > 100 µM (inactive) in the test with KM12; > 100 µM (inactive) in the test with MCF7; > 100 µM (inactive) with OVCAR-3; > 100 µM (inactive) in the test with RPMI-8226; > 100 µM (inactive) in the test on SF-295; 16.5 µM (inactive) in the test with SK-MEL-5. Besides, the GI50 in the test with SNB-75, in the test on TK-10 and in the test on U-251 was > 100 µM (inactive) each time.

With `CCN(CC)CCN1CCN=C2c3cc(OC)ccc3Nc3c([N+](=O)[O-])ccc1c32`, the GI50 is 0.369 µM (active) with 786-0; 1 µM (active) with COLO 205; 0.555 µM (active) in the test with HCC 2998; 0.845 µM in the test on HCT-15; 2.21 µM (inactive) in the test on HOP-92; 0.575 µM (active) in the test with K562. The GI50 with KM12 is 1.15 µM (inactive); with LOX IMVI, 1.41 µM (inactive); in the test with MCF7, 0.551 µM (active); in the test with Malme-3M it was 1.54 µM (inactive); in the test on RPMI-8226 it was 0.64 µM (active); with SF-295, 1.82 µM (inactive). For the same molecule, the GI50 with SK-MEL-5 is 1.55 µM (inactive); in the test with SK-OV-3 it was 2.52 µM (inactive); in the test with SNB-75 it was 1.95 µM (inactive); in the test on TK-10 it was 2.8 µM (inactive).

With `CC(=O)c1c(O)ccc2c1c1c(n2C)C(=O)c2ccccc2C1=O`, the GI50 in the test on 786-0 is 4.9 µM (inactive); in the test on A498 it was 2.84 µM (inactive); in the test with COLO 205, > 100 µM (inactive); in the test with HCC 2998, 0.0114 µM (active); with HCT-116, 3.01 µM (inactive); in the test on HCT-15, over 100 µM. For the same molecule, the GI50 with K562 is > 100 µM (inactive); in the test with LOX IMVI, 3.24 µM (inactive); in the test with MCF7, 1.69 µM (inactive); in the test on Malme-3M, 0.0128 µM (active); with OVCAR-3 it was 1.81 µM (inactive); with RPMI-8226, 1.46 µM (inactive). In addition, the GI50 in the test with SF-295 was 6.92 µM (inactive); in the test with SK-MEL-5 it was 3.29 µM (inactive); with SK-OV-3, 2.84 µM (inactive); in the test with SNB-75, 2.32 µM (inactive); in the test with TK-10 it was 3.47 µM (inactive); with U-251, 4.63 µM (inactive).

For `COc1ccc2c(C)cc(=O)oc2c1OC`, the GI50 in the test with 786-0 was > 100 µM (inactive); in the test with A498, > 100 µM (inactive); with COLO 205, > 100 µM (inactive); with HCT-116 it was > 100 µM (inactive); with HCT-15, over 100 µM; in the test on K562, > 100 µM (inactive). Also, the GI50 in the test with KM12, with LOX IMVI, with MCF7, with Malme-3M, in the test with OVCAR-3 and in the test with RPMI-8226 was > 100 µM (inactive) in each case. Moreover, the GI50 in the test on SF-295, in the test on SK-MEL-5, with SK-OV-3, in the test on SNB-75, with TK-10 and in the test on U-251 was > 100 µM (inactive) in each case.

For `O=S(=O)(O)c1cc(/N=N/c2c(O)ccc3ccccc23)c2c(S(=O)(=O)O)cccc2c1`, the GI50 in the test with 786-0 is > 100 µM (inactive); in the test with COLO 205, > 100 µM (inactive); in the test on HCC 2998, > 100 µM (inactive); with HCT-116 it was > 100 µM (inactive); with HCT-15, over 100 µM; in the test with HOP-92 it was > 100 µM (inactive). In addition, the GI50 with K562, in the test on KM12, in the test with MCF7, in the test on Malme-3M, in the test on OVCAR-3 and with RPMI-8226 was > 100 µM (inactive) in each case. The GI50 was > 100 µM (inactive) in the test on SF-295; > 100 µM (inactive) with SK-MEL-5; > 100 µM (inactive) in the test on SK-OV-3; < 0.01 µM (active) in the test with SNB-75; > 100 µM (inactive) with TK-10; > 100 µM (inactive) in the test on U-251.

`Cc1nc2ccc(Cl)cc2c2c1CCS2`: the GI50 was 66.4 µM (inactive) with 786-0; 22 µM (inactive) in the test on A498; 48.9 µM (inactive) in the test on COLO 205; 77.4 µM (inactive) in the test with HCC 2998; 41.1 µM (inactive) in the test on HCT-116; over 100 µM in the test on HCT-15. Moreover, the GI50 is 40.9 µM (inactive) in the test on K562; > 100 µM (inactive) in the test with KM12; 38 µM (inactive) in the test with LOX IMVI; 33.3 µM (inactive) with MCF7; 90.2 µM (inactive) in the test on Malme-3M; 47.8 µM (inactive) with OVCAR-3. Also, the GI50 in the test with RPMI-8226 is 16.3 µM (inactive); with SF-295 it was > 100 µM (inactive); in the test on SK-MEL-5, 27.6 µM (inactive); in the test on SK-OV-3, > 100 µM (inactive); in the test with TK-10, 69.2 µM (inactive); with U-251, > 100 µM (inactive).

For `COc1ccc(C(SC2C(O)C(CO)OC2n2ccc(=O)[nH]c2=O)(c2ccccc2)c2ccc(OC)cc2)cc1` (stereo unspecified), the GI50 with 786-0 is 16.3 µM (inactive); in the test on COLO 205, 17.7 µM (inactive); with HCC 2998, 14.8 µM (inactive); in the test with HCT-116 it was 14.7 µM (inactive); in the test with HCT-15 it was 15.5 µM; in the test with HOP-92 it was 15.6 µM (inactive). Further, the GI50 with K562 was 31.6 µM (inactive); in the test with KM12 it was 15.8 µM (inactive); in the test on LOX IMVI, 16.9 µM (inactive); with MCF7, 17.1 µM (inactive); in the test on Malme-3M, 20.7 µM (inactive); in the test with OVCAR-3, 17.6 µM (inactive). Also, the GI50 is 32.8 µM (inactive) in the test on RPMI-8226; 7.57 µM (inactive) in the test with SF-295; 14.7 µM (inactive) with SK-MEL-5; 13.7 µM (inactive) in the test with SK-OV-3; 18.5 µM (inactive) in the test with SNB-75; 25.4 µM (inactive) in the test on TK-10. Moreover, the GI50 in the test on U-251 is 13.9 µM (inactive).

Regarding `Nc1nc(SCc2ccccn2)c2ncn(C3CCCC3)c2n1`, the GI50 in the test on 786-0 is > 100 µM (inactive); in the test with A498 it was > 100 µM (inactive); with COLO 205 it was > 100 µM (inactive); in the test with HCC 2998, > 100 µM (inactive); in the test on HCT-116, > 100 µM (inactive); in the test with HCT-15 it was over 100 µM. Besides, the GI50 in the test with K562 was > 100 µM (inactive); in the test with KM12, > 100 µM (inactive); in the test with LOX IMVI, > 100 µM (inactive); with MCF7, > 100 µM (inactive); in the test on Malme-3M, 82 µM (inactive); with OVCAR-3, > 100 µM (inactive). Also, the GI50 was > 100 µM (inactive) in the test with RPMI-8226; > 100 µM (inactive) with SF-295; > 100 µM (inactive) in the test with SK-MEL-5; > 100 µM (inactive) with SK-OV-3; 40.5 µM (inactive) in the test on SNB-75; > 100 µM (inactive) in the test with TK-10. In addition, the GI50 in the test with U-251 is > 100 µM (inactive).

With `CCC(NC(C)c1ccccc1)C(=O)c1ccc(OCc2ccccc2)c(OCc2ccccc2)c1` (stereo unspecified), the GI50 was > 100 µM (inactive) with 786-0; > 100 µM (inactive) in the test on COLO 205; > 100 µM (inactive) in the test with HCC 2998; > 100 µM (inactive) in the test on HCT-116; over 100 µM with HCT-15; > 100 µM (inactive) with HOP-92. In addition, the GI50 in the test with K562 is 4.81 µM (inactive); in the test on KM12 it was > 100 µM (inactive); in the test on LOX IMVI it was > 100 µM (inactive); in the test on MCF7, > 100 µM (inactive); in the test on Malme-3M, > 100 µM (inactive); in the test with OVCAR-3, > 100 µM (inactive). In addition, the GI50 with RPMI-8226, in the test on SF-295, in the test on SK-MEL-5, in the test with SK-OV-3, in the test with SNB-75 and with TK-10 was > 100 µM (inactive) throughout. In the test on U-251, the GI50 is > 100 µM (inactive).
